The values below come from PubChem BioAssay AID328 (DTP/NCI, 2004).

This test concerns BDF1 mice, P388 leukemia ip, median survival T/C. Briefly: NCI In Vivo Anticancer Drug Screen. Data for tumor model P388 Leukemia (intraperitoneal) in B6D2F1 (BDF1) mice. As to conditions: endpoint: median survival time, higher = longer survival. An outline of the steps:
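Each value expresses how treatment altered survival: treated-mouse outcome over vehicle-mouse outcome, both groups bearing the transplanted tumour.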

The mark [1] stands for this setting: dose: 12.5 mg/kg/injection, schedule: Q01DX009 (ip), vehicle: Klucel (hydroxypropylcellulose) (HPC).
[2] abbreviates: dose: 25.0 mg/kg/injection, schedule: Q01DX009 (ip), vehicle: Klucel (hydroxypropylcellulose) (HPC).
Setting [3] is: dose: 100.0 mg/kg/injection, schedule: Q04DX003 (ip), vehicle: Klucel (hydroxypropylcellulose) (HPC).
Setting [4] is: dose: 200.0 mg/kg/injection, schedule: Q04DX003 (ip), vehicle: Klucel (hydroxypropylcellulose) (HPC).
Setting [5] is: dose: 400.0 mg/kg/injection, schedule: Q04DX003 (ip), vehicle: Klucel (hydroxypropylcellulose) (HPC).
[6] abbreviates: dose: 6.25 mg/kg/injection, schedule: Q01DX009 (ip), vehicle: saline with Tween-80.
[7] abbreviates: dose: 12.5 mg/kg/injection, schedule: Q01DX009 (ip), vehicle: saline with Tween-80.
The mark [8] stands for this setting: dose: 25.0 mg/kg/injection, schedule: Q01DX009 (ip), vehicle: saline with Tween-80.
Setting [9] is: dose: 50.0 mg/kg/injection, schedule: Q01DX009 (ip), vehicle: saline with Tween-80.
The mark [10] stands for this setting: dose: 100.0 mg/kg/injection, schedule: Q04DX003 (ip), vehicle: saline with Tween-80.
Where [11] appears, read: dose: 200.0 mg/kg/injection, schedule: Q04DX003 (ip), vehicle: saline with Tween-80.
[12] abbreviates: dose: 12.5 mg/kg/injection, schedule: Q01DX009 (ip), vehicle: saline.
Setting [13] is: dose: 25.0 mg/kg/injection, schedule: Q01DX009 (ip), vehicle: saline.
[14] abbreviates: dose: 100.0 mg/kg/injection, schedule: Q01DX009 (ip), vehicle: saline with Tween-80.
Setting [15] is: dose: 200.0 mg/kg/injection, schedule: Q01DX009 (ip), vehicle: saline with Tween-80.
Where [16] appears, read: dose: 6.25 mg/kg/injection, schedule: Q01DX009 (ip), vehicle: Klucel (hydroxypropylcellulose) (HPC).
The mark [17] stands for this setting: dose: 50.0 mg/kg/injection, schedule: Q01DX009 (ip), vehicle: Klucel (hydroxypropylcellulose) (HPC).

SMILES strings stand for the structures. “And” between values parts separate entries of the source, which are not always exact repeats. Equal entries are not always repeated. Inconclusive results and toxic doses are left out. Non-standard residues stand in square brackets, D forms with d. Residues, ends and D or L forms follow the SMILES beside them. ξ: configuration not given here. ξLac(3-iPr) = CC(C)CC(O)C(=O)O; NMeV = CN[CH](C(=O)O)C(C)C; NMeA = CN[CH](C)C(=O)O; βAla = NCCC(=O)O

On to `C1CNCC[N-]1.C1CNCC[N-]1.[Cl][Pt+2]([Cl])([Cl])[Cl]`, for which the T/C was 106 % of control and 115 % of control (dose: 3.12 mg/kg/injection, schedule: Q04DX003 (ip), vehicle: saline); 106 % of control (dose: 6.25 mg/kg/injection, schedule: Q01DX009 (ip), vehicle: saline); 100 % of control and 115 % of control (dose: 6.25 mg/kg/injection, schedule: Q04DX003 (ip), vehicle: saline); 108 % of control under setting [1]; 93 % of control and 98 % of control and 100 % of control (dose: 12.5 mg/kg/injection, schedule: Q04DX003 (ip), vehicle: saline); 120 % of control under setting [2]. Besides, the T/C (dose: 25.0 mg/kg/injection, schedule: Q04DX003 (ip), vehicle: saline) was 108 % of control.

`CC1CCC2(C)CCC(C(C)C)C2(O)CC1` (configuration not stated): the T/C (dose: 100.0 mg/kg/injection, schedule: Q01DX009 (ip), vehicle: saline) is 103 % of control; the T/C (dose: 100.0 mg/kg/injection, schedule: Q04DX003 (ip), vehicle: saline) is 100 % of control; the T/C (dose: 200.0 mg/kg/injection, schedule: Q04DX003 (ip), vehicle: saline) is 109 % of control; the T/C (dose: 400.0 mg/kg/injection, schedule: Q01DX009 (ip), vehicle: saline) is 111 % of control; the T/C (dose: 400.0 mg/kg/injection, schedule: Q04DX003 (ip), vehicle: saline) was 100 % of control.

For the compound `COc1ccc2cc1Oc1ccc(cc1)CC1=NCCc3cc(OC)c(OC)c(c31)Oc1cc3c(cc1OC)CCN(C)C3C2` (configuration not stated), the T/C by setting is: (dose: 67.0 mg/kg/injection, schedule: Q01DX010 (ip), vehicle: carboxymethylcellulose (CMC)) 86 % of control; (dose: 100.0 mg/kg/injection, schedule: Q01DX010 (ip), vehicle: carboxymethylcellulose (CMC)) 86 % of control.

`COC(=O)c1ccc(-c2ccccc2)cc1`: the T/C was 98 % of control (dose: 25.0 mg/kg/injection, schedule: Q04DX003 (ip), vehicle: Klucel (hydroxypropylcellulose) (HPC)); 95 % of control (dose: 50.0 mg/kg/injection, schedule: Q04DX003 (ip), vehicle: Klucel (hydroxypropylcellulose) (HPC)); 94 % of control under setting [3]; 101 % of control under setting [4]; 100 % of control under setting [5].

With `Cc1c(C=[N+]2CCCCC2)c2ccccc2n1C`, the T/C reads like this: under setting [6], 96 % of control; under setting [7], 105 % of control; under setting [8], 93 % of control; under setting [9], 99 % of control.

For the compound `COc1ccc(OC(=O)Nc2ccccc2OC)cc1`, the T/C runs as follows: under setting [3], 91 % of control; under setting [4], 91 % of control; under setting [5], 87 % of control.

As to `Cc1ccc2c(=O)n3cccc3c(=O)[nH]c2c1O`, the T/C is 103 % of control under setting [10]; 100 % of control under setting [11]; 96 % of control (dose: 400.0 mg/kg/injection, schedule: Q04DX003 (ip), vehicle: saline with Tween-80).

On to `C/C=C/C=N/NC(=S)NC`, for which the T/C reads like this: (dose: 6.75 mg/kg/injection, schedule: Q01DX009 (ip), vehicle: saline with Tween-80) 109 % of control; (dose: 13.5 mg/kg/injection, schedule: Q01DX009 (ip), vehicle: saline with Tween-80) 91 % of control; (dose: 27.0 mg/kg/injection, schedule: Q01DX009 (ip), vehicle: saline with Tween-80) 86 % of control.

In the case of `NC(=S)N/N=C\c1[nH]c(=O)nc2ccccc12`, the T/C under setting [3] is 100 % of control, the T/C under setting [4] is 100 % of control and the T/C under setting [5] is 95 % of control.

With `CCNNC(=O)[C@@H]1[C@H](c2cc(OC)c(OC)c(OC)c2)c2cc3c(cc2[C@H](O)[C@H]1CO)OCO3`, the T/C runs as follows: under setting [12], 109 % of control; under setting [13], 100 % of control; under setting [9], 116 % of control; (dose: 50.0 mg/kg/injection, schedule: Q01DX009 (ip), vehicle: saline) 122 % of control; under setting [14], 90 % of control; under setting [10], 108 % of control. The T/C is 90 % of control under setting [15] and 104 % of control under setting [11].

Turning to `CC(C)CCCC(C)C1CCC2C3CC=C4CC([S+](C)C)CCC4(C)C3CCC12C` (configuration not stated), the T/C is 109 % of control under setting [12] and 86 % of control under setting [13].

As to `Cc1ccc(S(=O)(=O)N/N=C/C(=O)O)cc1`, the T/C by setting is: under setting [16], 113 % of control and 111 % of control; (dose: 6.25 mg/kg/injection, schedule: Q01DX009 (ip), vehicle: other) 112 % of control; under setting [1], 124 % of control; under setting [17], 191 % of control and 169 % of control and 185 % of control; (dose: 100.0 mg/kg/injection, schedule: Q01DX009 (ip), vehicle: Klucel (hydroxypropylcellulose) (HPC)) 90 % of control and 101 % of control; (dose: 400.0 mg/kg/injection, schedule: Q01DX009 (ip), vehicle: Klucel (hydroxypropylcellulose) (HPC)) 114 % of control.

With `O=C(OC1C=CCC1)c1ccc([N+](=O)[O-])cc1` (configuration not stated), the T/C under setting [3] was 100 % of control, the T/C under setting [4] was 100 % of control and the T/C under setting [5] is 100 % of control.

Consider `CC1(C)C(=O)N(Cl)C(=O)N1Cl`, for which the T/C is, setting by setting: under setting [6], 109 % of control; under setting [7], 113 % of control; under setting [8], 263 % of control.

With `S=c1[nH]nc(Nc2ccccc2Cl)s1`, the T/C is 100 % of control under setting [9], 90 % of control under setting [14] and 100 % of control under setting [15].

Turning to `CCC(C)C1NC(=O)C2CCCN2C(=O)C(CC(C)C)OC(=O)CCNC(=O)C(C)N(C)C(=O)C(C(C)C)N(C)C1=O` (configuration not stated) (cyclo([ξLac(3-iPr)]PI[NMeV][NMeA][βAla]); configuration not given here), the T/C by setting is: (dose: 0.82 mg/kg/injection, schedule: Q01DX009 (ip), vehicle: saline) 115 % of control; (dose: 1.25 mg/kg/injection, schedule: Q01DX009 (ip), vehicle: saline) 91 % of control; (dose: 1.8 mg/kg/injection, schedule: Q01DX009 (ip), vehicle: saline) 107 % of control; (dose: 2.5 mg/kg/injection, schedule: Q01DX009 (ip), vehicle: saline) 96 % of control; (dose: 5.0 mg/kg/injection, schedule: Q01DX009 (ip), vehicle: saline) 108 % of control; (dose: 10.0 mg/kg/injection, schedule: Q01DX009 (ip), vehicle: saline) 104 % of control.

Regarding `Cc1ccc(N2CC(=O)N3CCCC(c4ccccc4)N3C(=O)C2)cc1` (configuration not stated), the T/C was 97 % of control (dose: 50.0 mg/kg/injection, schedule: Q01DX005 (ip), vehicle: saline with Tween-80); 94 % of control (dose: 100.0 mg/kg/injection, schedule: Q01DX005 (ip), vehicle: saline with Tween-80); 94 % of control (dose: 200.0 mg/kg/injection, schedule: Q01DX005 (ip), vehicle: saline with Tween-80).

For `Clc1c(CBr)c(Cl)c(CBr)c(Cl)c1CBr`, the T/C was 113 % of control under setting [1] and 122 % of control under setting [2].

In the case of `O=NN(CCCl)C(=O)Nc1cc2c3ccccc3ccc2c2ccccc12`, the T/C under setting [17] is 121 % of control.

In the case of `CCN1CCCC(Nc2nc(C(Cl)(Cl)Cl)nc3cc(Cl)ccc23)C1` (configuration not stated), the T/C runs as follows: under setting [8], 109 % of control; under setting [9], 113 % of control; under setting [14], 104 % of control.

As to `O=[N+]([O-])c1ccc(S(=O)(=O)c2ccccc2)c2nonc12`, the T/C under setting [8] was 107 % of control and the T/C under setting [9] was 98 % of control.

For the compound `CN1C(=O)C(=Cc2ccc(N(C)C)cc2)C(=O)N(C)C1=O`, the T/C is 103 % of control under setting [9], 99 % of control under setting [14] and 98 % of control under setting [15].

Take `CCCCCCCCCCCCCCC(F)C(=O)O` (configuration not stated): the T/C reads like this: under setting [16], 100 % of control; under setting [1], 91 % of control; under setting [2], 91 % of control and 95 % of control; under setting [3], 95 % of control.

Turning to `Cc1ccc(NCN2C(=O)NC(c3ccccc3)(c3ccccc3)C2=O)cc1`, the T/C (dose: 100.0 mg/kg/injection, schedule: Q01DX001 (ip), vehicle: saline with Tween-80) is 90 % of control and the T/C (dose: 200.0 mg/kg/injection, schedule: Q01DX001 (ip), vehicle: saline with Tween-80) was 95 % of control.

For the compound `NC(=S)N/N=C/C=C/c1ccccc1`, the T/C (dose: 100.0 mg/kg/injection, schedule: Q04DX002 (ip), vehicle: Klucel (hydroxypropylcellulose) (HPC)) was 96 % of control.
